Assay results: patent US10336732B2, “1-heterocyclyl isochromanyl compounds and analogs for treating CNS disorders” (Sunovion Pharmaceuticals Inc., priority 2015, dated 2019)

Target: T1, 5-HT2C (Homo sapiens, UniProt P28335)
T1 construct: expressed in transfected cells; host or cells: HEK-293 cells
T1 sequence (P28335 33-458): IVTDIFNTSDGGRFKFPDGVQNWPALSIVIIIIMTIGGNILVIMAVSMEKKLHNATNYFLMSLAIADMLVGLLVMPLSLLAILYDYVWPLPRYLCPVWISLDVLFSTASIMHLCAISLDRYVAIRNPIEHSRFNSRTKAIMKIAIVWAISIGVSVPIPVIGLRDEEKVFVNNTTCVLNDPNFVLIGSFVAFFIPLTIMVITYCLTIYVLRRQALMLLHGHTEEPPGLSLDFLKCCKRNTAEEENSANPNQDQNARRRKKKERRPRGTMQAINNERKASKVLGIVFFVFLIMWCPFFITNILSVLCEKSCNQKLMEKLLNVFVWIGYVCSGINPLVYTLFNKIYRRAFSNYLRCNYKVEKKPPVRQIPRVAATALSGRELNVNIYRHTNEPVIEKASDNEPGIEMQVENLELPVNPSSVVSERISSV
Experiment: In vitro radioligand binding assay, 5-HT2C, [3H]mesulergine
Parameters: concentration or dose not given beside the values
Settings: human recombinant (HEK-293 cells)
Procedure: Certain compounds were tested by in vitro binding assays using standard procedures. […] These receptors and assays are well known to those skilled in the art, as exemplified by the following: Abramovitz, M. et al. (2000), Biochem. Biophys. Acta., 1483: 285-293 (EP4, IP (PGI2)); Aharony, D. et al. (1993), Mol. Pharmacol., 44: 356-363 (NK2); Ardati, A. et al. (1997), Mol. Pharmacol., 51: 816-824 (NOP (ORL1)); Bignon, E. et al. (1999), J. Pharmacol. Exp. Ther. 289: 742-751 (CCK1 (CCKA)); Bloomquist, B. T. et al. (1998), Biochem. Biophys. Res. Commun., 243: 474-479 (GAL2); Brockhaus, M. et al. (1990), Proc. Natl. Acad. Sci. U.S.A., 87: 3127-3131 (TNF-α); Brown, G. B. (1986), J. Neurosci., 6: 2064-2070 (Na+ channel (site 2)); Buchan, K. W. et al. (1994), Brit. J. Pharmacol., 112: 1251-1257 (ETA); Cesura, A. M. et al. (1990), Mol. Pharmacol., 37: 358-366 (MAO-A); Choi, D. S. et al. (1994), FEBS Lett., 352: 393-399 (5-HT2B); Clark, A. F. et al. (1996), Invest. Ophtalmol. Vis. Sci., 37: 805-813 (GR); Couvineau, A. et al. (1985), Biochem. J., 231: 139-143 (VPAC1 (VIP1)); Dorje, F. et al. (1991), J. Pharmacol. Exp. Ther., 256: 727-733 (M1, M2, M3, M4); Ferry, G. et al. (2001), Eur. J. Pharmacol., 417: 77-89 (PPARγ); Fuchs, S. et al. (2001), Mol. Med., 7: 115-124 (ETB); Fuhlendorff, J. et al. (1990), Proc. Natl. Acad. Sci. U.S.A., 87: 182-186 (Y2); Ganapathy M E. et al. (1999), J. Pharmacol. Exp. Ther., 289: 251-260 (sigma (non-selective)); Gopalakrishnan, M. et al. (1996), J. Pharmacol. Exp. Ther., 276: 289-297 (N neuronal α4β2); Greengrass, P. and Bremner, R. (1979), Eur. J. Pharmacol., 55: 323-326 (α1 (non-selective)); Grandy, D. K. et al. (1989), Proc. Natl. Acad. Sci. U.S.A., 86: 9762-9766 (D25); Guard, S. et al. (1993), Eur. J. Pharmacol., 240:177-184 (BB (non-selective)); Heuillet, E. et al. (1993), J. Neurochem., 60: 868-876 (NK1, P2X); Hope, A. G. et al. (1996), Brit. J. Pharmacol., 118: 1237-1245 (5-HT3); Hoyer, D. et al. (1985), Eur. J. Pharmacol., 118: 1-12 (5-HT1B); Hugues, M. et al. (1982), J. Biol. Chem., 257: 2762-2769 (5-HT2A, SKCa channel); Joseph, S. S. et al. (2004), Naun.-Sch. Arch. Pharm., 369: 525-532 (β2); Le, M. T. et al. (2005), Eur. J. Pharmacol., 513: 35-45 (AT1); Le Fur, G. et al. (1983), Life Sci., 33: 449-457) (BZD (peripheral); Lee, Y. M. et al. (1993), J. Biol. Chem., 268: 8164-8169 (CCK2 (CCKB)); Leurs, R. et al. (1994), Brit. J. Pharmacol., 112: 847-854 (H2); Levin, M. C. et al. (2002), J. Biol. Chem., 277: 30429-30435 (11); Lewin, A. H. et al. (1989), Mol. Pharmacol., 35: 189-194 (Cl− channel (GABA-gated)); Lukas, R. J. (1986), J. Neurochem., 46: 1936-1941 (N muscle-type); Luthin, D. R. et al. (1995), Mol. Pharmacol., 47: 307-313; (A2A); Mackenzie, R. G. et al. (1994), Eur. J. Pharmacol., 266: 79-85 (D3); Mulheron, J. G. et al. (1994), J. Biol. Chem., 269: 12954-12962 (5-HT1A); Meng, F. et al. (1993), Proc. Natl. Acad. Sci. U.S.A., 90: 9954-9958 (κ (KOP)); Monsma, F. J. et al. (1993), Mol. Pharmacol., 43: 320-327 (5-HT6); Neote, K. et al. (1993), Cell, 72: 415-425 (CCR1); Pacholczyk, T. et al. (1991), Nature, 350: 350-354 (sst (non-selective, norepinephrine transporter)); Peralta, E. G. et al. (1987), Embo. J., 6: 3923-3929 (M3); Pristupa, Z. B. et al. (1994), Mol. Pharmacol., 45: 125-135 (dopamine transporter); Pruneau, D. et al. (1998), Brit. […]

Compound	5HT2c percent inhibition of specific binding [%]
Fc1cccc2c1[C@H]([C@@H]1CCN1)OCC2 [Compound I-83, (S)-2-((R)-8-fluoroisochroman-1-yl)azetidine]	64
Fc1cccc2c1[C@H]([C@@H]1CCCN1)OCC2 [Compound I-1, (S)-2-((R)-8-fluoroisochroman-1-yl)pyrrolidine]	63
Fc1ccc2c(c1)CCO[C@H]2[C@@H]1CCN1 [Compound I-90, (S)-2-((R)-6-fluoroisochroman-1-yl)azetidine]	59
Fc1ccc2c(c1)CCO[C@H]2[C@@H]1CCCN1 [Compound I-9, (S)-2-((R)-6-fluoroisochroman-1-yl)pyrrolidine]	61
Clc1ccc2c(c1)[C@H]([C@@H]1CCCN1)OCC2 [Compound I-29, (S)-2-((R)-7-chloroisochroman-1-yl)pyrrolidine]	67
